Among the data in US20240360178A1, “MACROCYCLIC IMMUNOMODULATORS” (Bristol-Myers Squibb Company, priority 2021, published 2024) are IC50 values, retold here.

The target of this assay is T1, human PD-1 (Jurkat-PD-1 cells) / PE-labeled human PD-L1-Ig (Homo sapiens, UniProt Q15116).
T1 construct: expressed in transfected cells; host or cells: Jurkat cell line over-expressing human PD-1
Put plainly: Jurkat-PD-1 Cell Binding High-Content Screening Assay (CBA); Jurkat hPD1-PDL1 assay. As to conditions: Jurkat cell line over-expressing human PD-1; PE-labeled PD-L1-Ig 20 nM final; compound incubated 2 hours at 37° C.; read-out: Jurkat HPD1-PDL1 IC50. The method, boiled down: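 Cell binding by imaging: Jurkat line stably over-expressing human PD-1, compound pre-exposure 2 h at 37° C, PE-conjugated PD-L1-Ig 20 nM final, medium DMEM containing 10% FCS.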

Positions of bridges follow the written chain, without caps; N, C: chain ends. Non-standard residues stand in square brackets, D forms with d. Residues, ends and D or L forms follow the SMILES beside them. *: point of attachment. Phe(4-CONH2) = NC(=O)c1ccc(C[C@H](N)C(=O)O)cc1; Bip = N[C@@H](Cc1ccc(-c2ccccc2)cc1)C(=O)O; Val(3-OH) = CC(C)(O)[C@H](N)C(=O)O; NMeF = CN[C@@H](Cc1ccccc1)C(=O)O; 4Pal = N[C@@H](Cc1ccncc1)C(=O)O; Cha = N[C@@H](CC1CCCCC1)C(=O)O; NMeN = CN[C@@H](CC(N)=O)C(=O)O; Carboxymethyl = O=C(O)C*; NMeA = CN[C@@H](C)C(=O)O; Nle = CCCC[C@H](N)C(=O)O; Orn = NCCC[C@H](N)C(=O)O; Dab = NCC[C@H](N)C(=O)O; Dap = NC[C@H](N)C(=O)O; Sar = CNCC(=O)O

T1 sequence (Q15116 25-288): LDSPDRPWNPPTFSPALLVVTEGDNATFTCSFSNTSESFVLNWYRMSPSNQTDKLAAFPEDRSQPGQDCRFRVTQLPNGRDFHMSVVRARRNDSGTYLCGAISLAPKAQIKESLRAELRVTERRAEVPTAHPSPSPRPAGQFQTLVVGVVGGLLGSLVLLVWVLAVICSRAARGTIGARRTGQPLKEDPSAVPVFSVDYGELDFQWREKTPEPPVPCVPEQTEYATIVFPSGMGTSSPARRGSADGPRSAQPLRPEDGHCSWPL

For `CC(C)C[C@@H]1NC(=O)[C@H](Cc2c[nH]c3ccccc23)NC(=O)[C@H](CC(=O)O)NC(=O)[C@H](Cc2ccc(O)cc2)NC(=O)[C@H](Cc2ccccc2)NC(=O)CSC[C@@H](C(=O)NCC(N)=O)NC(=O)[C@H](CO)NC(=O)[C@H](C(C)C)NC(=O)[C@H](CC(C)C)NC(=O)[C@H](CC(N)=O)NC(=O)[C@H](CC(N)=O)N(C)C(=O)[C@H](C)N(C)C(=O)[C@H](C(C)C)NC(=O)[C@H](Cc2ccc(-c3ccccc3)cc2)NC1=O` [Example 1148] ({CH2CO}-FYDWL[Bip]V[NMeA][NMeN]NLVSCG-NH2; thioether N-14), the IC50 came to 670 nM.
In the case of `CC(C)C[C@@H]1NC(=O)[C@H](Cc2c[nH]c3ccccc23)NC(=O)[C@H](CC(=O)O)NC(=O)[C@H](Cc2ccc(OCC(=O)O)cc2)NC(=O)[C@H](Cc2ccncc2)NC(=O)CSC[C@@H](C(=O)N[C@@H](CCN)C(N)=O)NC(=O)[C@H](CO)NC(=O)[C@H](C(C)(C)O)NC(=O)[C@H](CC2CCCCC2)NC(=O)[C@H](CCN)NC(=O)[C@H]2CCCN2C(=O)[C@H](C)N(C)C(=O)[C@H](C(C)C)NC(=O)[C@H](Cc2ccc(-c3ccccc3)cc2)NC1=O` [Example 1185] ({CH2CO}-[4Pal]Y(Carboxymethyl)DWL[Bip]V[NMeA][dP][Dab][Cha][Val(3-OH)]SC[Dab]-NH2; thioether N-14), the IC50 was 30 nM.
To `CC(C)C[C@@H]1NC(=O)[C@H](Cc2c[nH]c3ccccc23)NC(=O)[C@H](CC(=O)O)NC(=O)[C@H](Cc2ccc(O)cc2)NC(=O)[C@H](CN)NC(=O)CSC[C@@H](C(=O)N[C@@H](C)C(N)=O)NC(=O)[C@H](CO)NC(=O)[C@H](C(C)C)NC(=O)[C@H](CC(C)C)NC(=O)[C@H](CC(N)=O)NC(=O)[C@H]2CCCN2C(=O)[C@H](C)N(C)C(=O)[C@H](C(C)C)NC(=O)[C@H](Cc2ccc(-c3ccccc3)cc2)NC1=O` [Example 1394] ({CH2CO}-[Dap]YDWL[Bip]V[NMeA][dP]NLVSCA-NH2; thioether N-14) belongs 90 nM; to `CC(C)C[C@@H]1NC(=O)[C@H](Cc2c[nH]c3ccccc23)NC(=O)[C@H](CC(=O)O)NC(=O)[C@H](Cc2ccc(OCC(=O)O)cc2)NC(=O)[C@H](Cc2ccccc2)NC(=O)CSC[C@@H](C(=O)N[C@@H](C)C(N)=O)NC(=O)[C@H](CO)NC(=O)[C@H](C(C)C)NC(=O)[C@H](CC(C)C)NC(=O)[C@H](CC(N)=O)NC(=O)[C@H]2CCCN2C(=O)[C@H](C)N(C)C(=O)[C@H](C(C)C)NC(=O)[C@H](Cc2ccc(-c3ccccc3)cc2)NC1=O` [Example 1029] ({CH2CO}-FY(Carboxymethyl)DWL[Bip]V[NMeA][dP]NLVSCA-NH2; thioether N-14), 50 nM.
With `CC(C)C[C@@H]1NC(=O)CSC[C@@H](C(=O)NCC(N)=O)NC(=O)[C@H](CO)NC(=O)[C@H](C(C)C)NC(=O)[C@H](CC(C)C)NC(=O)[C@H](CCN)NC(=O)[C@H](Cc2ccccc2)N(C)C(=O)[C@H](C)N(C)C(=O)[C@H](CCCNC(=N)N)NC(=O)[C@H](Cc2ccc(-c3ccccc3)cc2)NC(=O)[C@H](C(C)C)NC(=O)[C@H](Cc2c[nH]c3ccccc23)NC(=O)[C@H](CC(=O)O)NC(=O)[C@H](Cc2ccc(O)cc2)NC1=O` [Example 1289] ({CH2CO}-LYDWV[Bip]R[NMeA][NMeF][Dab]LVSCG-NH2; thioether N-14) the figure was 170 nM.
With `CC(C)C[C@@H]1NC(=O)[C@H](CCCNC(=N)N)NC(=O)[C@H](Cc2ccccc2)N(C)C(=O)[C@H](C)N(C)C(=O)[C@H](CCC(=O)O)NC(=O)[C@H](Cc2ccc(-c3ccccc3)cc2)NC(=O)[C@H](C(C)C)NC(=O)[C@H](Cc2c[nH]c3ccccc23)NC(=O)[C@H](CC(=O)O)NC(=O)[C@H](Cc2ccc(O)cc2)NC(=O)[C@H](Cc2cnc[nH]2)NC(=O)CSC[C@@H](C(=O)NCC(N)=O)NC(=O)[C@H](CO)NC(=O)[C@H](C(C)C)NC1=O` [Example 1288] ({CH2CO}-HYDWV[Bip]E[NMeA][NMeF]RLVSCG-NH2; thioether N-14) the figure was 80 nM; with `CCCC[C@@H]1NC(=O)[C@H](CC(N)=O)NC(=O)CN(C)C(=O)[C@H](C)N(C)C(=O)[C@H](C(C)C)NC(=O)[C@H](Cc2ccc(-c3ccccc3)cc2)NC(=O)[C@H](CC(C)C)NC(=O)[C@H](Cc2c[nH]c3ccccc23)NC(=O)[C@H](CC(=O)O)NC(=O)[C@H](Cc2ccc(O)cc2)NC(=O)[C@H](Cc2ccccc2)NC(=O)CSC[C@@H](C(=O)NCC(N)=O)NC(=O)[C@H](CO)NC(=O)[C@H](C(C)C)NC1=O` [Example 1073] ({CH2CO}-FYDWL[Bip]V[NMeA][Sar]N[Nle]VSCG-NH2; thioether N-14), 190 nM.
Turning to `CC(C)C[C@@H]1NC(=O)[C@H](CC(N)=O)NC(=O)[C@H](Cc2ccccc2)N(C)C(=O)[C@H](C)N(C)C(=O)[C@H](CCCNC(=N)N)NC(=O)[C@H](Cc2ccc(-c3ccccc3)cc2)NC(=O)[C@H](C(C)C)NC(=O)[C@H](Cc2c[nH]c3ccccc23)NC(=O)[C@H](CC(=O)O)NC(=O)[C@H](Cc2ccc(O)cc2)NC(=O)[C@H](Cc2ccccc2)NC(=O)CSC[C@@H](C(=O)NCC(N)=O)NC(=O)[C@H](CO)NC(=O)[C@H](C(C)C)NC1=O` [Example 1207] ({CH2CO}-FYDWV[Bip]R[NMeA][NMeF]NLVSCG-NH2; thioether N-14), the IC50 is 320 nM.
Take `CC(C)C[C@@H]1NC(=O)[C@H](Cc2c[nH]c3ccccc23)NC(=O)[C@H](CC(=O)O)NC(=O)[C@H](Cc2ccc(O)cc2)NC(=O)[C@H](Cc2ccc(C(N)=O)cc2)NC(=O)CSC[C@@H](C(=O)NCC(N)=O)NC(=O)[C@H](CO)NC(=O)[C@H](C(C)C)NC(=O)[C@H](CC(C)C)NC(=O)[C@H](CC(N)=O)NC(=O)CN(C)C(=O)[C@H](C)N(C)C(=O)[C@H](C(C)C)NC(=O)[C@H](Cc2ccc(-c3ccccc3)cc2)NC1=O` [Example 1174] ({CH2CO}-[Phe(4-CONH2)]YDWL[Bip]V[NMeA][Sar]NLVSCG-NH2; thioether N-14): the IC50 was found to be 970 nM.
With `CC(C)C[C@@H]1NC(=O)[C@H](CCCN)NC(=O)[C@H](Cc2ccccc2)N(C)C(=O)[C@H](C)N(C)C(=O)[C@H](CCCNC(=N)N)NC(=O)[C@H](Cc2ccc(-c3ccccc3)cc2)NC(=O)[C@H](C(C)C)NC(=O)[C@H](Cc2c[nH]c3ccccc23)NC(=O)[C@H](CC(=O)O)NC(=O)[C@H](Cc2ccc(O)cc2)NC(=O)[C@H](Cc2ccccc2)NC(=O)CSC[C@@H](C(=O)N[C@@H](C)C(N)=O)NC(=O)[C@H]([C@@H](C)O)NC(=O)[C@H](C(C)C)NC1=O` [Example 1345] ({CH2CO}-FYDWV[Bip]R[NMeA][NMeF][Orn]LVTCA-NH2; thioether N-14) the figure was 120 nM; with `CC(C)C[C@@H]1NC(=O)[C@H](Cc2c[nH]c3ccccc23)NC(=O)[C@H](CC(=O)O)NC(=O)[C@H](Cc2ccc(O)cc2)NC(=O)[C@H](Cc2ccccc2)NC(=O)CSC[C@@H](C(=O)N[C@@H](C)C(N)=O)NC(=O)[C@H]([C@@H](C)O)NC(=O)[C@H](C(C)C)NC(=O)[C@H](CC(C)C)NC(=O)[C@H](CC(N)=O)NC(=O)[C@H]2CCCN2C(=O)[C@H](C)N(C)C(=O)[C@H](C(C)C)NC(=O)[C@H](Cc2ccc(-c3ccccc3)cc2)NC1=O` [Example 1050] ({CH2CO}-FYDWL[Bip]V[NMeA][dP]NLVTCA-NH2; thioether N-14), 110 nM; with `CC(C)C[C@@H]1NC(=O)[C@H](CCCNC(=N)N)NC(=O)[C@H](Cc2ccccc2)N(C)C(=O)[C@H](C)N(C)C(=O)[C@H](CCC(=O)O)NC(=O)[C@H](Cc2ccc(-c3ccccc3)cc2)NC(=O)[C@H](C(C)C)NC(=O)[C@H](Cc2c[nH]c3ccccc23)NC(=O)[C@H](CC(=O)O)NC(=O)[C@H](Cc2ccc(O)cc2)NC(=O)[C@H](CC(N)=O)NC(=O)CSC[C@@H](C(=O)N[C@@H](C)C(N)=O)NC(=O)[C@H](CO)NC(=O)[C@H](C(C)C)NC1=O` [Example 1382] ({CH2CO}-NYDWV[Bip]E[NMeA][NMeF]RLVSCA-NH2; thioether N-14), 130 nM.
With `CC(C)C[C@@H]1NC(=O)[C@H](CCCNC(=N)N)NC(=O)[C@H](Cc2ccccc2)N(C)C(=O)[C@H](C)N(C)C(=O)[C@H](CCC(=O)O)NC(=O)[C@H](Cc2ccc(-c3ccccc3)cc2)NC(=O)[C@H](C(C)C)NC(=O)[C@H](Cc2c[nH]c3ccccc23)NC(=O)[C@H](CC(=O)O)NC(=O)[C@H](Cc2ccc(O)cc2)NC(=O)[C@H](CC(N)=O)NC(=O)CSC[C@@H](C(=O)N[C@@H](C)C(N)=O)NC(=O)[C@H]([C@@H](C)O)NC(=O)[C@H](C(C)C)NC1=O` [Example 1379] ({CH2CO}-NYDWV[Bip]E[NMeA][NMeF]RLVTCA-NH2; thioether N-14) the figure was 40 nM; with `CCCC[C@@H]1NC(=O)[C@H](C(C)C)NC(=O)[C@H](Cc2ccccc2)N(C)C(=O)[C@H](CC(=O)O)NC(=O)[C@H](CCCNC(=N)N)NC(=O)[C@H](Cc2ccc(-c3ccccc3)cc2)NC(=O)[C@H](C(C)C)NC(=O)[C@H](Cc2c[nH]c3ccccc23)NC(=O)[C@H](CC(=O)O)NC(=O)[C@H](Cc2ccc(O)cc2)NC(=O)[C@H](Cc2ccccc2)NC(=O)CSC[C@@H](C(=O)NCC(N)=O)NC(=O)[C@H](CO)NC(=O)[C@H](C(C)C)NC1=O` [Example 1227] ({CH2CO}-FYDWV[Bip]RD[NMeF]V[Nle]VSCG-NH2; thioether N-14), 650 nM; with `CC(C)C[C@@H]1NC(=O)[C@H](CCCNC(=N)N)NC(=O)[C@H](Cc2ccccc2)N(C)C(=O)[C@H](CCCN)NC(=O)[C@H](CCCNC(=N)N)NC(=O)[C@H](Cc2ccc(-c3ccccc3)cc2)NC(=O)[C@H](C(C)C)NC(=O)[C@H](Cc2c[nH]c3ccccc23)NC(=O)[C@H](CC(=O)O)NC(=O)[C@H](Cc2ccc(O)cc2)NC(=O)[C@H](CC(N)=O)NC(=O)CSC[C@@H](C(=O)N[C@@H](C)C(N)=O)NC(=O)[C@H]([C@@H](C)O)NC(=O)[C@H](C(C)C)NC1=O` [Example 1383] ({CH2CO}-NYDWV[Bip]R[Orn][NMeF]RLVTCA-NH2; thioether N-14), 630 nM.
